Measurements as given in ChEMBL document CHEMBL6127017, “Regulation of exercise ability and glycolipid metabolism by synthetic SR9009 analogues as new REV-ERB-α agonists” (Bioorg Med Chem, 2024).

Tests used:
[1] = system: HEK293; assay: Agonist activity at Flag-tagged REV-ERBalpha (unknown origin) expressed in HEK293 cells co-expressing BMAL1 (unknown origin) assessed as relative strength index by measuring ratio of inhibitory rate of BMAL1 incubated for 24 hrs by Dual Glo-Luciferase assay relative to SR9009; type: cell-based; conditions: Homo sapiens
[2] = Cytotoxicity against MDCK cells; type: toxicity, cell-based, Canis lupus familiaris; conditions: dog, read-out: TC50 (the source's name)
[3] = Agonist activity at Flag-tagged REV-ERBalpha (unknown origin) expressed in HEK293 cells co-expressing BMAL1 (unknown origin) inhibition of BMAL1 incubated for 24 hrs by Dual Glo-Luciferase assay; type: cell-based; conditions: Homo sapiens, HEK293, 24 h
[4] = Metabolic stability in human liver microsomes assessed as half life at 1 uM incubated upto 60 mins by LC-MS/MS analysis; type: ADME, Microsome
[5] = Metabolic stability in human liver microsomes assessed as intrinsic clearance at 1 uM incubated upto 60 mins by LC-MS/MS analysis; type: ADME, Microsome; conditions: read-out: CLH
[6] = Metabolic stability in human liver microsomes assessed as hepatic extraction ratio at 1 uM incubated upto 60 mins by LC-MS/MS analysis; type: ADME, Microsome; conditions: read-out: ERH
[7] = system: Mus musculus; assay: Effect on exercise tolerance in high-fat diet-induced obese C57BL/6 mouse assessed as total running time at 200 mg/kg, IG for 7 days (reference value: 2954.50 sec); type: functional; conditions: time 7 day
[8] = system: Mus musculus; assay: Effect on exercise tolerance in high-fat diet-induced obese C57BL/6 mouse assessed as total running distance at 200 mg/kg, IG for 7 days; type: functional; conditions: time 7 day
[9] = system: Mus musculus; assay: Effect on blood lipid level in high-fat diet-induced obese C57BL/6 mouse assessed as decrease in blood glucose level at 200 mg/kg, IG for 7 days (reference value: 10.77 mmol/L); type: functional; conditions: time 7 day
[10] = system: Mus musculus; assay: Effect on blood lipid level in high-fat diet-induced obese C57BL/6 mouse assessed as total cholesterol level at 200 mg/kg, IG for 7 days (reference value: 4.69 mmol/L); type: functional; conditions: time 7 day
[11] = system: Mus musculus; assay: Effect on blood lipid level in high-fat diet-induced obese C57BL/6 mouse assessed as triglyceride level at 200 mg/kg, IG for 7 days (reference value: 2.07 mmol/L); type: functional; conditions: time 7 day
[12] = system: Mus musculus; assay: Effect on exercise tolerance in normal diet-fed C57BL/6 mouse assessed as total running distance at 200 mg/kg, IG for 3 days (reference value: 2183.20 meter); type: functional; conditions: time 3 day
[13] = system: Mus musculus; assay: Effect on exercise tolerance in normal diet-fed C57BL/6 mouse assessed as total running time at 200 mg/kg, IG for 3 days (reference value: 7002.00 sec); type: functional; conditions: time 3 day
[14] = Metabolic stability in human liver microsomes assessed as compound remaining at 1 uM measured immediately in presence of NADPH/UDPGA by LC-MS/MS analysis; type: ADME, Microsome; conditions: read-out: Stability
[15] = Metabolic stability in human liver microsomes assessed as compound remaining at 1 uM measured after 15 mins in presence of NADPH/UDPGA by LC-MS/MS analysis; type: ADME, Microsome; conditions: read-out: Stability
[16] = Metabolic stability in human liver microsomes assessed as compound remaining at 1 uM measured after 30 mins in presence of NADPH/UDPGA by LC-MS/MS analysis; type: ADME, Microsome; conditions: read-out: Stability
[17] = Metabolic stability in human liver microsomes assessed as compound remaining at 1 uM measured after 45 mins in presence of NADPH/UDPGA by LC-MS/MS analysis; type: ADME, Microsome; conditions: read-out: Stability
[18] = Metabolic stability in human liver microsomes assessed as compound remaining at 1 uM measured after 60 mins in presence of NADPH/UDPGA by LC-MS/MS analysis; type: ADME, Microsome; conditions: read-out: Stability
[19] = Metabolic stability in human liver microsomes assessed as compound remaining at 1 uM measured immediately by LC-MS/MS analysis; type: ADME, Microsome; conditions: read-out: Stability
[20] = Metabolic stability in human liver microsomes assessed as compound remaining at 1 uM measured after 15 mins by LC-MS/MS analysis; type: ADME, Microsome; conditions: read-out: Stability
[21] = Metabolic stability in human liver microsomes assessed as compound remaining at 1 uM measured after 30 mins by LC-MS/MS analysis; type: ADME, Microsome; conditions: read-out: Stability
[22] = Metabolic stability in human liver microsomes assessed as compound remaining at 1 uM measured after 45 mins by LC-MS/MS analysis; type: ADME, Microsome; conditions: read-out: Stability
[23] = Metabolic stability in human liver microsomes assessed as compound remaining at 1 uM measured after 60 mins by LC-MS/MS analysis; type: ADME, Microsome; conditions: read-out: Stability

SMILES: C=CC(=O)N1CCC(CN(Cc2ccc(F)cc2)Cc2ccc([N+](=O)[O-])s2)C1 (stereo not drawn)
- Ratio ([1]; filed as agonist): 61.2%

SMILES: COc1ccccc1CN(Cc1ccc([N+](=O)[O-])s1)CC1CCN(C(=O)C2CC2)C1 (stereo not drawn)
- Ratio [1]: 5.77%
- CC50 [2]: 38.5 µM

SMILES: O=C(C1CC1)N1CCC(CN(Cc2ccc([N+](=O)[O-])s2)Cc2ccc(F)cc2F)C1 (stereo not drawn)
- Ratio ([1]; filed as agonist): 98.2%
- EC50 [3]: 4.93 µM
- CC50 [2]: 38.5 µM
- half-life at 1 µM [4]: 2.3 min
- microsomal CLint at 1 µM [5]: 601 µL/min/mg
- hepatic extraction ratio at 1 h, 1 µM [6]: 0.97
- Time [7]: 5805 s
- Activity [8]: 1042.52 m
- Activity [9]: 6.79 mmol/L
- Activity [10]: 3.83 mmol/L
- Activity [11]: 1.04 mmol/L
- Activity [12]: 2843.74 m
- Time [13]: 9087.88 s
- remaining at 0 min, 1 µM [14]: 100%
- remaining at 0.25 h, 1 µM [15]: 1.1%
- remaining at 0.5 h, 1 µM [16]: 0.23%
- remaining at 0.75 h, 1 µM [17]: 0.16%
- remaining at 1 h, 1 µM [18]: 0.07%
- remaining at 0 min, 1 µM [19]: 100%
- remaining at 0.25 h, 1 µM [20]: 106%
- remaining at 0.5 h, 1 µM [21]: 103%
- remaining at 0.75 h, 1 µM [22]: 105%
- remaining at 1 h, 1 µM [23]: 108%

SMILES: O=C(c1ccc(Br)o1)N1CCC(CN(Cc2ccc(Cl)cc2)Cc2ccc([N+](=O)[O-])s2)C1 (stereo not drawn)
- Ratio ([1]; filed as agonist): 120%
- EC50 [3]: 8.29 µM
- Time [7]: 4130 s
- Activity [8]: 797.96 m

SMILES: O=C(C1CC1)N1CCC(CN(Cc2ccc([N+](=O)[O-])s2)Cc2c(F)cccc2Cl)C1 (stereo not drawn)
- Ratio [1]: 30.2%

SMILES: O=C(C1CC1)N1CCC(CN(Cc2ccc(Cl)c(Cl)c2)Cc2ccc([N+](=O)[O-])s2)C1 (stereo not drawn)
- Ratio ([1]; filed as agonist): 84.8%
- EC50 [3]: 5.99 µM
- CC50 [2]: 10.7 µM
- half-life at 1 µM [4]: 3.37 min
- microsomal CLint at 1 µM [5]: 411 µL/min/mg
- hepatic extraction ratio at 1 h, 1 µM [6]: 0.96
- Time [7]: 5011.38 s
- Activity [8]: 1061.4 m
- Activity [9]: 6.82 mmol/L
- Activity [10]: 4.5 mmol/L
- Activity [11]: 1.12 mmol/L
- Activity [12]: 3115.39 m
- Time [13]: 10034.25 s
- remaining at 0 min, 1 µM [14]: 100%
- remaining at 0.25 h, 1 µM [15]: 4.6%
- remaining at 0.5 h, 1 µM [16]: 0.91%
- remaining at 0.75 h, 1 µM [17]: 0.3%
- remaining at 1 h, 1 µM [18]: 0.15%
- remaining at 0 min, 1 µM [19]: 100%
- remaining at 0.25 h, 1 µM [20]: 93.2%
- remaining at 0.5 h, 1 µM [21]: 108%
- remaining at 0.75 h, 1 µM [22]: 93.3%
- remaining at 1 h, 1 µM [23]: 90.1%

SMILES: CCOC(=O)N1CCC(CN(Cc2ccc(Cl)cc2)Cc2ccc([N+](=O)[O-])s2)C1 (stereo not drawn) [SR9009]
- EC50 [3]: 8.57 µM
- CC50 [2]: 38.5 µM
- half-life at 1 µM [4]: 2.23 min
- microsomal CLint at 1 µM [5]: 622 µL/min/mg
- hepatic extraction ratio at 1 h, 1 µM [6]: 0.97
- Time [7]: 5428.38 s
- Activity [8]: 1177.69 m
- Activity [9]: 9.46 mmol/L
- Activity [10]: 4.03 mmol/L
- Activity [11]: 1.07 mmol/L
- Activity [12]: 3121.42 m
- Time [13]: 9908.5 s
- remaining at 0 min, 1 µM [14]: 100%
- remaining at 0.25 h, 1 µM [15]: 0.94%
- remaining at 0.5 h, 1 µM [16]: 0.04%
- remaining at 0.75 h, 1 µM [17]: 0.08%
- remaining at 1 h, 1 µM [18]: 0.06%
- remaining at 0 min, 1 µM [19]: 100%
- remaining at 0.25 h, 1 µM [20]: 85.6%
- remaining at 0.5 h, 1 µM [21]: 98.5%
- remaining at 0.75 h, 1 µM [22]: 85.6%
- remaining at 1 h, 1 µM [23]: 103%

SMILES: O=C(CC1CC1)N1CCC(CN(Cc2ccc(Cl)cc2)Cc2ccc([N+](=O)[O-])s2)C1 (stereo not drawn)
- Ratio ([1]; filed as agonist): 73.2%

SMILES: O=C(NS(=O)(=O)N1CCC(CN(Cc2ccc(Cl)cc2)Cc2ccc([N+](=O)[O-])s2)C1)OCC1CC1 (stereo not drawn)
- Ratio ([1]; filed as agonist): 63%

SMILES: O=C(NS(=O)(=O)N1CCC(CN(Cc2ccc(Cl)cc2)Cc2ccc([N+](=O)[O-])s2)C1)OCC1CCCC1 (stereo not drawn)
- Ratio [1]: 34.3%

SMILES: O=C(C1CC1)N1CCC(CN(Cc2cccc(Cl)c2)Cc2ccc([N+](=O)[O-])s2)C1 (stereo not drawn)
- Ratio ([1]; filed as agonist): 51%
- CC50 [2]: 22.2 µM

SMILES: O=C(Cc1cccs1)N1CCC(CN(Cc2ccc(Cl)cc2)Cc2ccc([N+](=O)[O-])s2)C1 (stereo not drawn)
- Ratio ([1]; filed as agonist): 121%
- EC50 [3]: 8.88 µM
- Time [7]: 3726.88 s
- Activity [8]: 686.85 m

SMILES: O=C(C1CC1)N1CCC(CN(Cc2cccc(Br)c2)Cc2ccc([N+](=O)[O-])s2)C1 (stereo not drawn)
- Ratio ([1]; filed as agonist): 89.8%
- CC50 [2]: 15.4 µM

SMILES: O=C(C1CC1)N1CCC(CN(Cc2ccc([N+](=O)[O-])s2)Cc2ccc(F)cc2Cl)C1 (stereo not drawn)
- Ratio ([1]; filed as agonist): 89.4%
- EC50 [3]: 8.31 µM
- CC50 [2]: 38.5 µM

SMILES: CC1CCC(N(Cc2ccc([N+](=O)[O-])s2)CC2CCN(C(=O)OC(C)(C)C)C2)CC1 (stereo not drawn)
- Ratio [1]: 26.8%

SMILES: O=C(C1CC1)N1CCC(CN(Cc2ccc3c(c2)OCO3)Cc2ccc([N+](=O)[O-])s2)C1 (stereo not drawn)
- Ratio ([1]; filed as agonist): 70.7%
- CC50 [2]: 15.4 µM

SMILES: COc1ccc(CN(Cc2ccc([N+](=O)[O-])s2)CC2CCN(C(=O)C3CC3)C2)cc1OC (stereo not drawn)
- Ratio ([1]; filed as agonist): 43.4%
- CC50 [2]: 32 µM

SMILES: O=C(c1ccco1)N1CCC(CN(Cc2ccc(Cl)cc2)Cc2ccc([N+](=O)[O-])s2)C1 (stereo not drawn)
- Ratio ([1]; filed as agonist): 126%
- EC50 [3]: 7.15 µM
- Time [7]: 4165.38 s
- Activity [8]: 836.67 m

SMILES: O=C(C1CCC1)N1CCC(CN(Cc2ccc(Cl)cc2)Cc2ccc([N+](=O)[O-])s2)C1 (stereo not drawn)
- Ratio ([1]; filed as agonist): 116%
- EC50 [3]: 9.21 µM
- Time [7]: 3159 s
- Activity [8]: 572.8 m

SMILES: O=C(C1CC1)N1CCC(CN(Cc2ccc(Cl)cc2)Cc2ccc([N+](=O)[O-])s2)C1 (stereo not drawn)
- Ratio ([1]; filed as agonist): 55%

SMILES: C=CC(=O)N1CCC(CN(Cc2ccc(Cl)cc2)Cc2ccc([N+](=O)[O-])s2)C1 (stereo not drawn)
- Ratio ([1]; filed as agonist): 125%
- EC50 [3]: 8.65 µM
- Time [7]: 4516.75 s
- Activity [8]: 910.9 m

SMILES: O=C(C1CC1)N1CCC(CN(Cc2cc(Cl)cc(Cl)c2)Cc2ccc([N+](=O)[O-])s2)C1 (stereo not drawn)
- Ratio ([1]; filed as agonist): 64.7%
- CC50 [2]: 12.8 µM

SMILES: CC(F)C(=O)N1CCC(CN(Cc2ccc(Cl)cc2)Cc2ccc([N+](=O)[O-])s2)C1 (stereo not drawn)
- Ratio ([1]; filed as agonist): 85.4%

SMILES: COc1cccc(CN(Cc2ccc([N+](=O)[O-])s2)CC2CCN(C(=O)C3CC3)C2)c1 (stereo not drawn)
- Ratio ([1]; filed as agonist): 64.5%
- CC50 [2]: 15.4 µM
